In patent US20240083839A1, “COMPOSITIONS AND METHODS FOR TREATING NEURODEGENERATIVE DISEASES AND DISORDERS” (The Regents of the University of California, priority 2020, published 2024):
Values joined by “and” are separate entries in the source; they are usually repeats but may differ in a detail not shown here. Equal entries are not always repeated. Where two headings read alike, the source gives them in different places.

Assays:
[1] = tested on: SirT1 levels in N2a-E4 cells; assay: SirT1 levels by AlphaLISA in ApoE4-transfected N2a cells; format: cell-based, murine
Procedure: Prompted by the emerging importance of the associations between ApoE4 and the expression/protein levels of SirT1, high-throughput screening (HTS) of the UCLA compound library was performed using AlphaLISA to detect SirT1 levels in murine neuroblastoma cells stably transfected with ApoE4 (E4-N2a) to identify SirT1 enhancers. […] In the in vivo study, mice were treated orally at 40 mkd (20 mg/kg BID) for 56 days and underwent assessment of cognition in the Novel Object Recognition (NOR) testing paradigm. […] The performance of A03-treated E4-AD mice (FIG. 5A) improved to level of non-transgenic vehicle-treated mice.
Throughout, for PAMPA: unit not given here.

Row | Structure (SMILES) | SirT1 SOμM [1] | SirT1 SμM [1] | PAMPA (PAMPA) | PAMPA (PAMPA; PAMPA)
1 | O=C1NCN[C@H]1Cc1ccc(Cl)cc1 [MP-72, (S)-5-(4-chlorobenzyl)imidazolidin-4-one] | A, A (A >20%) | A, A (A >20%) | 11.07(2) | 
2 | C#Cc1ccc(CC(C)(C)OC(=O)[C@H](C)N)cc1 [MP-50, 1-(4-ethynylphenyl)-2-methylpropan-2-yl alaninate] | B (B >50%) | A (A >20%) | 3.36 | 
3 | CC(C)(Cc1ccc(Cl)cc1)OC(=O)C(N)CCCCN (stereo not drawn) [MP-13, 1-(4-chlorophenyl)-2-methylpropan-2-yl 2,6-diaminohexanoate] | C (C = 100% increase versus control) | A (A >20%) | 6.49 | 
4 | C[C@@H](N)C(=O)OC(C)(C)Cc1ccc(Cl)cc1 [MP-42, 1-(4-chlorophenyl)-2-methylpropan-2-yl D-alaninate] | a, a (a <250%) | a, a (a <250%) |  | 3.9
5 | C[C@@H](N)C(=O)NC(C)(Cc1ccc(F)cc1)Cc1ccc(F)cc1 [MP-52, (R)-2-amino-N-(1,3-bis(4-fluorophenyl)-2-methylpropan-2-yl)propanamide] | A, A (A >20%) | A, A (A >20%) | 1 | 
6 | C[C@H](NC(=O)OC(C)(C)C)C(=O)NC(C)(C)Cc1ccc(C(F)(F)F)cc1 [MP-77, (S)-tert-butyl (1-((2-methyl-1-(4-(trifluoromethyl)phenyl)propan-2-yl)amino)-1-oxopropan-2-yl)carbamate] | a, a (a <250%) | a, a (a <250%) | 1.61 | 
7 | CC(=O)c1ccc(CC(C)(C)NC(=O)[C@H](C)N)cc1 [MP-53, (S)—N-(1-(4-acetylphenyl)-2-methylpropan-2-yl)-2-aminopropanamide] | B (B >50%) | A (A >20%) | 0.49 | 
8 | CC(C)(Cc1ccc(Cl)cc1)OC(=O)CCN [MP-17, 1-(4-chlorophenyl)-2-methylpropan-2-yl 3-aminopropanoate] | C (C = 100% increase versus control) | A (A >20%) | 3.86 | 
9 | C#Cc1ccc(CC(C)(C)NC(=O)[C@H](C)N)cc1 [MP-59, (S)-2-amino-N-(1-(4-ethynylphenyl)-2-methylpropan-2-yl)propanamide] | A, A (A >20%) | A, A (A >20%) | 2.49 | 
10 | CC(C)(Cc1ccc(Cl)cc1)OC(=O)C(N)Cc1ccccc1 (stereo not drawn) [MP-01, 1-(4-chlorophenyl)-2-methylpropan-2-yl 2-amino-3-phenylpropanoate] | A, A (A >20%) | A, A (A >20%) | 4.72 | 
11 | CC(C)(N)C(=O)NCCc1ccc(Cl)cc1 [MP-79, 2-amino-N-(4-chlorophenethyl)-2-methylpropanamide] | B (B >50%) | A (A >20%) | 1.74 | 
12 | C[C@H](N)C(=O)NC(C)(C)Cc1ccc(Cl)cc1 [MP-28, (S)-2-amino-N-(1-(4-chlorophenyl)-2-methylpropan-2-yl)propanamide] | B (B >50%) | A (A >20%) | 2.78 and 2.86 | 
13 | C[C@H](N)C(=O)OC(C)(C)Cc1ccc(Cl)cc1 [MP-41, 1-(4-chlorophenyl)-2-methylpropan-2-yl L-alaninate] | A, A (A >20%) | A, A (A >20%) |  | 3.88
14 | C[C@@H](N)C(=O)NC(C)(C)Cc1ccc(Cl)cc1 [MP-27, (R)-2-amino-N-(1-(4-chlorophenyl)-2-methylpropan-2-yl)propanamide] | a, a (a <250%) | a, a (a <250%) | 2.72 | 
15 | CC(C)(Cc1ccc(Cl)cc1)OC(=O)C1CCCCN1 (stereo not drawn) [MP-19, 1-(4-chlorophenyl)-2-methylpropan-2-yl piperidine-2-carboxylate] | A, A (A >20%) | A, A (A >20%) | 2.61 | 
16 | C[C@H](N)C(=O)NC(C)(C)Cc1ccc(CC(F)(F)F)cc1 [MP-58, (S)-2-amino-N-(2-methyl-1-(4-(2,2,2-trifluoroethyl)phenyl)propan-2-yl)propanamide] | C (C = 100% increase versus control) | A (A >20%) | 1.28 | 

Row | Structure (SMILES) | SirT1 SOμM [1] | SirT1 SμM [1] | PAMPA (PAMPA) | PAMPA (PAMPA; PAMPA)
17 | C[C@@H](N)C(=O)NC(C)(C)Cc1cc(F)cc(F)c1 [MP-44, (R)-2-amino-N-(1-(3,5-difluorophenyl)-2-methylpropan-2-yl)propanamide] | A (A >20%) | a (a <250%) | 1.57 | 
18 | O=C(N[C@H]1Cc2ccccc2CNC1=O)OCC1c2ccccc2-c2ccccc21 [MP-74, (S)-(9H-fluoren-9-yl)methyl (3-oxo-2,3,4,5-tetrahydro-1H-benzo[c]azepin-4-yl)carbamate] | a, a (a <250%) | a, a (a <250%) | 1.55 | 
19 | C[C@@H](N)C(=O)NC(C)(C)Cc1ccc(F)c(F)c1 [MP-36, (R)-2-amino-N-(1-(3,4-difluorophenyl)-2-methylpropan-2-yl)propanamide] | a, a (a <250%) | a, a (a <250%) | 1.66 | 
20 | C[C@H](N)C(=O)NC(C)(C)Cc1cc(F)cc(F)c1 [MP-43, (S)-2-amino-N-(1-(3,5-difluorophenyl)-2-methylpropan-2-yl)propanamide] | A, A (A >20%) | A, A (A >20%) | 1.59 | 
21 | CCC(C)C(N)C(=O)OC(C)(C)Cc1ccc(Cl)cc1 (stereo not drawn) [MP-11, 1-(4-chlorophenyl)-2-methylpropan-2-yl 2-amino-3-methylpentanoate] | A, A (A >20%) | A, A (A >20%) | 5.28 | 
22 | CC(C)(Cc1ccc(Br)cc1)NC(=O)[C@@H](N)CCC(=O)O [MP-61, (S)-4-amino-5-((1-(4-bromophenyl)-2-methylpropan-2-yl)amino)-5-oxopentanoic acid] | B (B >50%) | A (A >20%) | 0.29 | 
23 | CC(N)C(=O)OC(C)(C)Cc1ccc(F)cc1 (stereo not drawn) [MP-04, 1-(4-fluorophenyl)-2-methylpropan-2-yl 2-aminopropanoate] | B (B >50%) | A (A >20%) | 2.75 | 
24 | O=C(N[C@H]1Cc2ccccc2CNC1=O)OCc1ccccc1 [MP-73, (S)-benzyl (3-oxo-2,3,4,5-tetrahydro-1H-benzo[c]azepin-4-yl)carbamate] | a, a (a <250%) | a, a (a <250%) | 0.68 | 
25 | CC(N)C(=O)OC(C)(C)Cc1ccc(F)c(F)c1 (stereo not drawn) [MP-03, 1-(3,4-difluorophenyl)-2-methylpropan-2-yl 2-aminopropanoate] | C (C = 100% increase versus control) | B (B >50%) | 2.37 | 
26 | CC(C)(Cc1ccc(Cl)cc1)OC(=O)C1CCCN1 (stereo not drawn) [MP-20, 1-(4-chlorophenyl)-2-methylpropan-2-yl pyrrolidine-2-carboxylate] | B (B >50%) | A (A >20%) | 2.66 | 
27 | C[C@H](N)C(=O)OC(C)(C)Cc1ccncc1 [MP-48, 2-methyl-1-(pyridin-4-yl)propan-2-yl alaninate] | B (B >50%) | A (A >20%) | 0.4 | 
28 | COC(=O)N[C@H]1Cc2ccccc2CNC1=O [MP-70] | A, A (A >20%) | A, A (A >20%) | 0.59 | 
29 | C[C@H](N)C(=O)OC1(Cc2ccc(Cl)cc2)CCNC1 (single isomer, unassigned) [MP-33, 3-(4-chlorobenzyl)pyrrolidin-3-yl L-alaninate] | C (C = 100% increase versus control) | A (A >20%) | 0.7 | 
30 | C[C@H](N)C(=O)NC(C)(Cc1ccc(Cl)cc1)c1ccc(Br)cc1 (stereo partly drawn) [MP-30] | A, A (A >20%) | A, A (A >20%) | 2.89 | 
31 | C[C@@H](N)C(=O)NC(C)(C)Cc1cccc(C(F)(F)F)c1 [MP-40, (R)-2-amino-N-(2-methyl-1-(3-(trifluoromethyl)phenyl)propan-2-yl)propanamide] | A, A (A >20%) | A, A (A >20%) | 1.78 | 
32 | Cc1ccc(CC(C)(C)OC(=O)C(C)N)cc1 (stereo not drawn) [MP-06, 2-methyl-1-p-tolylpropan-2-yl 2-aminopropanoate] | B (B >50%) | A (A >20%) | 4.22 | 
